Source: patent publication US11306101B2 (Celgene Corporation, priority 2019, dated 2022)

Target: T1, CK1α (Homo sapiens, UniProt P48729+Q96SW2)
T1 construct: expressed in transfected cells
Test: CK1α ePL degradation assay in MDS-L cells
Assay type: cell-based
Settings: MDS-L cells expressing ePL-tagged CK1α; for DC50: concentration giving 50% CK1α degradation vs DMSO control; for Y: lowest measured CK1α level normalized to DMSO control
Summary of the method: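 MDS-L cells treated with compound in a 10-point, 3-fold series from 10 μM to 0.0005 μM at 37° C, 5% CO2 for the indicated times; CK1α measured by InCELL Hunter enzyme-fragment luminescence. Levels normalized to DMSO as percent of control; lowest level reached taken as Y value.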

T1 sequence (P48729 whole entry): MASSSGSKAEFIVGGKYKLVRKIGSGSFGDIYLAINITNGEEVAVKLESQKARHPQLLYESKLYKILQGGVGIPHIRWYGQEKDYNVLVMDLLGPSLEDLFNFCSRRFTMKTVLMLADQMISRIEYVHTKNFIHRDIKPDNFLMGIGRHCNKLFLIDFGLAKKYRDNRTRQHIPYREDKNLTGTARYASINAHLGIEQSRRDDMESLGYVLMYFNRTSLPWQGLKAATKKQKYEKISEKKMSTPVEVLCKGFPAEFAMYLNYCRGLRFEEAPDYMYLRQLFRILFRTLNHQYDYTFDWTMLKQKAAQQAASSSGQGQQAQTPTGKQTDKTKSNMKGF
T1 sequence (Q96SW2 whole entry): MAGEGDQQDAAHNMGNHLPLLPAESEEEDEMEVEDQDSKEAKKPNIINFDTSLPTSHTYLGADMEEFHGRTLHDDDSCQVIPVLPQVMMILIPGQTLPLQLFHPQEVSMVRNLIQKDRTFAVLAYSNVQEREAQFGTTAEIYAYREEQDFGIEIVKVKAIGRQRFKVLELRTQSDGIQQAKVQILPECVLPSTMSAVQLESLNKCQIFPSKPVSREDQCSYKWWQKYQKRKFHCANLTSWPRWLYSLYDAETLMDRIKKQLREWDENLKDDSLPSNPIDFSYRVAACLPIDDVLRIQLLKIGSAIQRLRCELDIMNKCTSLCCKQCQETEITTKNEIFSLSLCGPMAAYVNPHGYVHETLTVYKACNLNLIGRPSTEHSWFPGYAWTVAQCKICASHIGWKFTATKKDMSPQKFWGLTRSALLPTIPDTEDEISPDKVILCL
T1 sequence (Q16531 whole entry partner): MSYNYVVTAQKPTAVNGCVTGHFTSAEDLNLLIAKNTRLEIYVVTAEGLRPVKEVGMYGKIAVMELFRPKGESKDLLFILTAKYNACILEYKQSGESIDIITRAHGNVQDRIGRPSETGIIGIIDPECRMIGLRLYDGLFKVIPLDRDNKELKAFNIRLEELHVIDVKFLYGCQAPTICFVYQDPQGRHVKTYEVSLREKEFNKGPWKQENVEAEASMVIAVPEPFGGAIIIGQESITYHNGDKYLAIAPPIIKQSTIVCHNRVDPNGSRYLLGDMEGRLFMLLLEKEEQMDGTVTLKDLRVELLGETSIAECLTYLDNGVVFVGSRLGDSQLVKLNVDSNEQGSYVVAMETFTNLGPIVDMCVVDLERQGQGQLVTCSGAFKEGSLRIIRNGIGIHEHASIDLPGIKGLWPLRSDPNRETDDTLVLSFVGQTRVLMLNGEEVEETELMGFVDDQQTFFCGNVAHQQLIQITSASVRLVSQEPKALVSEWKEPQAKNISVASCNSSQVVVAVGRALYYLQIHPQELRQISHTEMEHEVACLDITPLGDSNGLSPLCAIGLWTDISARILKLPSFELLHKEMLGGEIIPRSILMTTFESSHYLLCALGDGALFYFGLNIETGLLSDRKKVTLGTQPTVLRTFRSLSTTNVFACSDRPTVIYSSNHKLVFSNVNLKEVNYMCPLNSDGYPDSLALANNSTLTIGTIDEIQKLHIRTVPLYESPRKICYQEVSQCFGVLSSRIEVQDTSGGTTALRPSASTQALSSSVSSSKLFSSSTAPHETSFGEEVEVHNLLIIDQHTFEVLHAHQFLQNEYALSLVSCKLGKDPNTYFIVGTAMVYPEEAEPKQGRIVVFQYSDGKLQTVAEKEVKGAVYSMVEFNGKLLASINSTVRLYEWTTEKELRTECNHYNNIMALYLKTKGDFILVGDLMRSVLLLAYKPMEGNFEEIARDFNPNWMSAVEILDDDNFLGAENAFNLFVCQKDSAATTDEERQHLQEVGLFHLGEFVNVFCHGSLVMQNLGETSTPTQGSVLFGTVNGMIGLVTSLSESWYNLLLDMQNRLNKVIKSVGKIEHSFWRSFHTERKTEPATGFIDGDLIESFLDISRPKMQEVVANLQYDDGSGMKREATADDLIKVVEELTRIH

| Structure (SMILES) | DC50 | Y |
| --- | --- | --- |
| O=C1CC[C@H](N2Cc3cc(C(=O)N[C@H](c4ncc(Cl)cc4F)C(F)(F)F)ccc3C2=O)C(=O)N1 [Example 193, N-((R)-1-(5-chloro-3-fluoropyridin-2-yl)-2,2,2-trifluoroethyl)-2-((S)-2,6-dioxopiperidin-3-yl)-1-oxoisoindoline-5-carboxamide] | < 100 nM | * (a Y value (shown as *) of 0<Y≤20%) |
| O=C1CCC(N2Cc3cc(C(=O)N[C@H](c4ccncc4)C(F)(F)F)ccc3C2=O)C(=O)N1 (stereo partly drawn) [Example 39, 2-(2,6-dioxopiperidin-3-yl)-1-oxo-N-((R)-2,2,2-trifluoro-1-(pyridin-4-yl)ethyl)isoindoline-5-carboxamide] | 500 to 1000 nM | *** (a Y value (shown as***) of 35%<Y<50%) |
| O=C1CCC(N2Cc3cc(C(=O)N[C@H](c4ccc(OC5CC5)cc4)C(F)(F)F)ccc3C2=O)C(=O)N1 (stereo partly drawn) [Example 148, N-((R)-1-(4-cyclopropoxyphenyl)-2,2,2-trifluoroethyl)-2-(2,6-dioxopiperidin-3-yl)-1-oxoisoindoline-5-carboxamide] | < 100 nM | * (a Y value (shown as *) of 0<Y≤20%) |
| CC(C)[C@H](NC(=O)c1ccc2c(c1)CN(C1CCC(=O)NC1=O)C2=O)c1ccc(Cl)cc1 (stereo partly drawn) [Example 177, N-((S)-1-(4-chlorophenyl)-2-methylpropyl)-2-(2,6-dioxopiperidin-3-yl)-1-oxoisoindoline-5-carboxamide] | < 100 nM | * (a Y value (shown as *) of 0<Y≤20%) |
| CN1CCN(c2ccc([C@@H](NC(=O)c3ccc4c(c3)CN(C3CCC(=O)NC3=O)C4=O)C(F)(F)F)cc2)CC1 (stereo partly drawn) [Example 208, 2-(2,6-dioxopiperidin-3-yl)-1-oxo-N-((R)-2,2,2-trifluoro-1-(4-(4-methylpiperazin-1-yl)phenyl)ethyl)isoindoline-5-carboxamide] | < 100 nM | * (a Y value (shown as *) of 0<Y≤20%) |
| O=C1CCC(N2Cc3cc(C(=O)N[C@H](C4CCCCC4)C(F)(F)F)ccc3C2=O)C(=O)N1 (some centres unmarked) [Example 23] | < 100 nM | * (a Y value (shown as *) of 0<Y≤20%) |
| Cc1ccc([C@@H](NC(=O)c2ccc3c(c2F)CN(C2CCC(=O)NC2=O)C3=O)C(F)(F)F)cc1 (stereo partly drawn) [Example 144, 2-(2,6-dioxopiperidin-3-yl)-4-fluoro-1-oxo-N-((R)-2,2,2-trifluoro-1-p-tolylethyl)isoindoline-5-carboxamide] | 100 to 500 nM | * (a Y value (shown as *) of 0<Y≤20%) |
| O=C1CCC(N2Cc3c(ccc(C(=O)N[C@H](c4ccc(F)cc4)C(F)F)c3F)C2=O)C(=O)N1 (stereo partly drawn) [Example 112, N-((R)-2,2-difluoro-1-(4-fluorophenyl)ethyl)-2-(2,6-dioxopiperidin-3-yl)-4-fluoro-1-oxoisoindoline-5-carboxamide] | < 100 nM | * (a Y value (shown as *) of 0<Y≤20%) |
| O=C1CCC(N2Cc3c(ccc(C(=O)N[C@H](c4ccccc4OC4CC4)C(F)(F)F)c3F)C2=O)C(=O)N1 (stereo partly drawn) [Example 157, N-((R)-1-(2-cyclopropoxyphenyl)-2,2,2-trifluoroethyl)-2-(2,6-dioxopiperidin-3-yl)-4-fluoro-1-oxoisoindoline-5-carboxamide] | < 100 nM | ** (a Y value (shown as**) of 20%<Y≤35%) |
| O=C1CCC(N2Cc3c(ccc(C(=O)N[C@H](C4CCCC4)C(F)(F)F)c3F)C2=O)C(=O)N1 (stereo partly drawn) [Example 137, N-((R)-1-cyclopentyl-2,2,2-trifluoroethyl)-2-(2,6-dioxopiperidin-3-yl)-4-fluoro-1-oxoisoindoline-5-carboxamide] | < 100 nM | * (a Y value (shown as *) of 0<Y≤20%) |
| O=C1CCC(N2Cc3cc(C(=O)N[C@H]([C@H]4CC[C@H](O)CC4)C(F)(F)F)ccc3C2=O)C(=O)N1 (stereo partly drawn) [Example 56, 2-(2,6-dioxopiperidin-3-yl)-1-oxo-N-((R)-2,2,2-trifluoro-1-((1r,4R)-4-hydroxycyclohexyl)ethyl)isoindoline-5-carboxamide] | 100 to 500 nM | * (a Y value (shown as *) of 0<Y≤20%) |
| O=C1CCC(N2Cc3c(ccc(C(=O)N[C@H](c4ccc(F)cn4)C(F)(F)F)c3F)C2=O)C(=O)N1 (stereo partly drawn) [Example 115, 2-(2,6-dioxopiperidin-3-yl)-4-fluoro-1-oxo-N-((R)-2,2,2-trifluoro-1-(5-fluoropyridin-2-yl)ethyl)isoindoline-5-carboxamide] | 100 to 500 nM | ** (a Y value (shown as**) of 20%<Y≤35%) |

Now from value to molecule:

| DC50 | Y | Structure (SMILES) |
| --- | --- | --- |
| < 100 nM | * (a Y value (shown as *) of 0<Y≤20%) | CN(C)Cc1ccc([C@@H](NC(=O)c2ccc3c(c2)CN(C2CCC(=O)NC2=O)C3=O)C(F)(F)F)cc1 (stereo partly drawn) [Example 141, N-((R)-1-(4-((dimethylamino)methyl)phenyl)-2,2,2-trifluoroethyl)-2-(2,6-dioxopiperidin-3-yl)-1-oxoisoindoline-5-carboxamide] |
| < 100 nM | * (a Y value (shown as *) of 0<Y≤20%) | O=C1CCC(N2Cc3cc(C(=O)N[C@H](c4ccccc4F)C(F)(F)F)ccc3C2=O)C(=O)N1 (stereo partly drawn) [Example 49, 2-(2,6-dioxopiperidin-3-yl)-1-oxo-N-((R)-2,2,2-trifluoro-1-(2-fluorophenyl)ethyl)isoindoline-5-carboxamide] |
| < 100 nM | * (a Y value (shown as *) of 0<Y≤20%) | O=C1CCC(N2Cc3cc(C(=O)N[C@H](c4cccc(OC(F)(F)F)c4)C(F)(F)F)ccc3C2=O)C(=O)N1 (stereo partly drawn) [Example 58, 2-(2,6-dioxopiperidin-3-yl)-1-oxo-N-((R)-2,2,2-trifluoro-1-(3-(trifluoromethoxy)phenyl)ethyl)isoindoline-5-carboxamide] |
| < 100 nM | * (a Y value (shown as *) of 0<Y≤20%) | O=C1CCC(N2Cc3cc(C(=O)N[C@H](c4ccc(Cl)cc4F)C(F)(F)F)ccc3C2=O)C(=O)N1 (stereo partly drawn) [Example 79, N-((R)-1-(4-chloro-2-fluorophenyl)-2,2,2-trifluoroethyl)-2-(2,6-dioxopiperidin-3-yl)-1-oxoisoindoline-5-carboxamide] |
| < 100 nM | * (a Y value (shown as *) of 0<Y≤20%) | O=C1CCC(N2Cc3cc(C(=O)N[C@H](c4cccc(C(F)(F)F)c4)C(F)(F)F)ccc3C2=O)C(=O)N1 (stereo partly drawn) [Example 52, 2-(2,6-dioxopiperidin-3-yl)-1-oxo-N-((R)-2,2,2-trifluoro-1-(3-(trifluoromethyl)phenyl)ethyl)isoindoline-5-carboxamide] |
| < 100 nM | * (a Y value (shown as *) of 0<Y≤20%) | O=C1CCC(N2Cc3cc(C(=O)N[C@H](c4ccc(C(F)(F)F)cc4)C(F)(F)F)ccc3C2=O)C(=O)N1 (stereo partly drawn) [Example 40, 2-(2,6-dioxopiperidin-3-yl)-1-oxo-N-((R)-2,2,2-trifluoro-1-(4-(trifluoromethyl)phenyl)ethyl)isoindoline-5-carboxamide] |
| < 100 nM | * (a Y value (shown as *) of 0<Y≤20%) | O=C1CCC(N2Cc3cc(C(=O)N[C@H](c4ccc(F)cc4Cl)C(F)(F)F)ccc3C2=O)C(=O)N1 (stereo partly drawn) [Example 72, N-((R)-1-(2-chloro-4-fluorophenyl)-2,2,2-trifluoroethyl)-2-(2,6-dioxopiperidin-3-yl)-1-oxoisoindoline-5-carboxamide] |
| < 100 nM | * (a Y value (shown as *) of 0<Y≤20%) | Cc1ccccc1[C@@H](CC(F)(F)F)NC(=O)c1ccc2c(c1)CN(C1CCC(=O)NC1=O)C2=O (stereo partly drawn) [Example 196, 2-(2,6-dioxopiperidin-3-yl)-1-oxo-N-((R)-3,3,3-trifluoro-1-o-tolylpropyl)isoindoline-5-carboxamide] |
| 500 to 1000 nM | ** (a Y value (shown as**) of 20%<Y≤35%) | Cn1ccc([C@@H](NC(=O)c2ccc3c(c2)CN(C2CCC(=O)NC2=O)C3=O)C(F)(F)F)n1 (stereo partly drawn) [Example 65, 2-(2,6-dioxopiperidin-3-yl)-1-oxo-N-((R)-2,2,2-trifluoro-1-(1-methyl-1H-pyrazol-3-yl)ethyl)isoindoline-5-carboxamide] |
| < 100 nM | * (a Y value (shown as *) of 0<Y≤20%) | O=C1CCC(N2Cc3cc(C(=O)N[C@H](c4ccccc4Oc4ccccc4)C(F)(F)F)ccc3C2=O)C(=O)N1 (stereo partly drawn) [Example 159, 2-(2,6-dioxopiperidin-3-yl)-1-oxo-N-((R)-2,2,2-trifluoro-1-(2-phenoxyphenyl)ethyl)isoindoline-5-carboxamide] |
